ChEMBL document CHEMBL4602729, “O-Alkyl Hydroxamates Display Potent and Selective Antileishmanial Activity” (J Med Chem, 2020)
pIC50: −log10 of the molar value. Active and inactive are the calls of the source. The calls are words filed in the database; no cut-off is given here.

Columns and labels:
[1] = Solubility of the compound in water; format: physicochemical
[2] = tested on: Leishmania major; experiment: Antileishmanial activity against Leishmania major MON-4 intracellular amastigotes; format: functional, organism-based; conditions: Leishmania major, MON-4
[3] = tested on: Leishmania tropica; experiment: Antileishmanial activity against Leishmania tropica MON-102 intracellular amastigotes; format: functional, organism-based; conditions: Leishmania tropica, MON-102
[4] = tested on: Leishmania donovani; experiment: Antileishmanial activity against Leishmania donovani MON-2 intracellular amastigotes; format: functional, organism-based; conditions: Leishmania donovani, MON-2
[5] = Cytotoxicity against Swiss mouse BMDM assessed as reduction in cell viability measured after 72 hrs by tryphan blue assay; format: cell-based; conditions: Swiss, BMDM
[6] = tested on: Leishmania infantum; experiment: Antileishmanial activity against Leishmania infantum MON-1 intracellular amastigotes infected in Swiss mouse BMDM measured after 48 hrs by Giemsa staining based optical microscopic analysis; format: functional, organism-based; conditions: Leishmania infantum, MON-1, BMDM, 48 h
[7] = tested on: Leishmania infantum; experiment: Antileishmanial activity against Leishmania infantum MON-1 intracellular amastigotes infected in Swiss mouse BMDM assessed as reduction in parasite load at 3.21 uM measured after 48 hrs using PLGA nanoparticle incorporated compound by Giemsa staining based optical microscopic analysis relative to control; format: functional; design: scale not given: the % may be the effect or the level left
[8] = tested on: BMDM; experiment: Cytotoxicity against Swiss mouse BMDM assessed as reduction in cell viability at 3.21 uM measured after 72 hrs using PLGA nanoparticle incorporated compound by tryphan blue assay; format: cell-based
[9] = tested on: BMDM; experiment: Cytotoxicity against Swiss mouse BMDM assessed as reduction in cell viability at 14.3 uM measured after 72 hrs using gold nanoparticle incorporated compound by tryphan blue assay; format: cell-based
[10] = Toxicity in BALB/c mouse infected with Leishmania infantum MON-1 promastigotes assessed as biochemical alteration in plasma at 10 to 25 mg/kg, ip administered daily for 14 days starting from 28 days post infection using gold nanoparticle incorporated compound; format: organism-based; conditions: in vivo
[11] = Toxicity in BALB/c mouse infected with Leishmania infantum MON-1 promastigotes assessed as swelling of spleen at 10 to 25 mg/kg, ip administered daily for 14 days starting from 28 days post infection using gold nanoparticle incorporated compound; format: organism-based; conditions: in vivo
[12] = Toxicity in BALB/c mouse infected with Leishmania infantum MON-1 promastigotes assessed as swelling of kidney at 10 to 25 mg/kg, ip administered daily for 14 days starting from 28 days post infection using gold nanoparticle incorporated compound; format: organism-based; conditions: in vivo
[13] = Toxicity in BALB/c mouse infected with Leishmania infantum MON-1 promastigotes assessed as histological changes at 10 to 25 mg/kg, ip administered daily for 14 days starting from 28 days post infection using gold nanoparticle incorporated compound; format: organism-based; conditions: in vivo
[14] = Toxicity in BALB/c mouse infected with Leishmania infantum MON-1 promastigotes assessed as biochemical alteration in plasma at 10 to 25 mg/kg, ip administered daily for 14 days starting from 28 days post infection using PLGA nanoparticle incorporated compound; format: organism-based; conditions: in vivo
[15] = Toxicity in BALB/c mouse infected with Leishmania infantum MON-1 promastigotes assessed as biochemical alteration in serum at 10 to 25 mg/kg, ip administered daily for 14 days starting from 28 days post infection using PLGA nanoparticle incorporated compound; format: organism-based; conditions: in vivo
[16] = Toxicity in BALB/c mouse infected with Leishmania infantum MON-1 promastigotes assessed as enzymatic alteration in serum at 10 to 25 mg/kg, ip administered daily for 14 days starting from 28 days post infection using PLGA nanoparticle incorporated compound; format: organism-based; conditions: in vivo
[17] = Toxicity in BALB/c mouse infected with Leishmania infantum MON-1 promastigotes assessed as swelling of kidney at 10 to 25 mg/kg, ip administered daily for 14 days starting from 28 days post infection using PLGA nanoparticle incorporated compound; format: organism-based; conditions: in vivo
[18] = Toxicity in BALB/c mouse infected with Leishmania infantum MON-1 promastigotes assessed as weight loss at 10 to 25 mg/kg, ip administered daily for 14 days starting from 28 days post infection using PLGA nanoparticle incorporated compound; format: organism-based; conditions: in vivo
[19] = Sub-acute toxicity in Swiss mouse at 25 to 200 mg/kg administered as for 14 days and measured on day 28; format: organism-based; conditions: in vivo, 336 h
[20] = tested on: Leishmania infantum; experiment: (§1) Antileishmanial activity against Leishmania infantum MON-1 promastigotes infected in BALB/c mouse assessed as reduction in liver parasite load at 10 mg/kg, ip administered daily for 14 days starting from 28 days post infection using PLGA nanoparticle incorporated compound measured post last dose by Taqman qRT-PCR analysis; format: functional, organism-based
[21] = tested on: Leishmania infantum; experiment: as §1, with “spleen” for “liver”; format: functional, organism-based
[22] = tested on: Leishmania infantum; experiment: as §1, with “spleen” for “liver”, “25” for “10”, “analysis relative to control” for “analysis”; format: functional; design: scale not given: the % may be the effect or the level left
[23] = tested on: Leishmania infantum; experiment: as §1, with “25” for “10”, “analysis relative to control” for “analysis”; format: functional; design: scale not given: the % may be the effect or the level left
[24] = tested on: Leishmania infantum; experiment: as §1, with “spleen” for “liver”, “5” for “10”, “gold” for “PLGA”, “dose in presence of meglumine antimoniate” for “dose”, “analysis relative to control” for “analysis”; format: functional; design: scale not given: the % may be the effect or the level left
[25] = tested on: Leishmania infantum; experiment: as §1, with “spleen” for “liver”, “gold” for “PLGA”, “dose in presence of meglumine antimoniate” for “dose”, “analysis relative to control” for “analysis”; format: functional; design: scale not given: the % may be the effect or the level left
[26] = Drug metabolism in human liver microsomes assessed as vorinostat formation at 1 uM measured up to 60 mins by LC-MS/MS analysis; format: ADME, Microsome; conditions: 1 h
[27] = Drug metabolism in human liver microsomes assessed as compound 12 formation at 1 uM measured after 30 mins by LC-MS/MS analysis; format: ADME, Microsome; conditions: 0.5 h
[28] = Drug metabolism in human liver microsomes assessed as N-oxidation of amide moiety by measuring compound 14 formation at 1 uM measured up to 60 mins by LC-MS/MS analysis; format: ADME, Microsome; conditions: 1 h
[29] = Half life in human liver microsomes at 1 uM in presence of NADPH by LC-MS/MS analysis; format: ADME, Microsome
[30] = target: Cytochrome P450 3A4 (Homo sapiens, UniProt P08684); experiment: Inhibition of CYP3A4 in human liver microsomes using testosterone as substrate measured after 15 mins by LC-MS/MS analysis; format: ADME
[31] = target: Cytochrome P450 2D6 (Homo sapiens, UniProt P10635); experiment: Inhibition of CYP2D6 in human liver microsomes using dextromethorphan as substrate measured after 30 mins by LC-MS/MS analysis; format: ADME
[32] = target: Cytochrome P450 2C9 (Homo sapiens, UniProt P11712); experiment: Inhibition of CYP2C9 in human liver microsomes using diclofenac as substrate measured after 45 mins by LC-MS/MS analysis; format: ADME
[33] = Mutagenicity in Salmonella typhimurium TA98 at 10 to 75 uM measured after 5 days in presence of S9 fraction by Ames test; format: toxicity, subcellular; conditions: salmonella enterica subsp. enterica serovar typhimurium, s9, 120 h
[34] = Mutagenicity in Salmonella typhimurium TA98 at 10 to 75 uM measured after 5 days in absence of S9 fraction by Ames test; format: toxicity; conditions: salmonella enterica subsp. enterica serovar typhimurium, s9, 120 h
[35] = Mutagenicity in Salmonella typhimurium TA100 at 10 to 75 uM measured after 5 days in presence of S9 fraction by Ames test; format: toxicity, subcellular; conditions: salmonella enterica subsp. enterica serovar typhimurium, s9, 120 h
[36] = Mutagenicity in Salmonella typhimurium TA100 at 10 to 75 uM measured after 5 days in absence of S9 fraction by Ames test; format: toxicity; conditions: salmonella enterica subsp. enterica serovar typhimurium, s9, 120 h

Cytochrome P450 3A4, sequence (P08684 whole entry): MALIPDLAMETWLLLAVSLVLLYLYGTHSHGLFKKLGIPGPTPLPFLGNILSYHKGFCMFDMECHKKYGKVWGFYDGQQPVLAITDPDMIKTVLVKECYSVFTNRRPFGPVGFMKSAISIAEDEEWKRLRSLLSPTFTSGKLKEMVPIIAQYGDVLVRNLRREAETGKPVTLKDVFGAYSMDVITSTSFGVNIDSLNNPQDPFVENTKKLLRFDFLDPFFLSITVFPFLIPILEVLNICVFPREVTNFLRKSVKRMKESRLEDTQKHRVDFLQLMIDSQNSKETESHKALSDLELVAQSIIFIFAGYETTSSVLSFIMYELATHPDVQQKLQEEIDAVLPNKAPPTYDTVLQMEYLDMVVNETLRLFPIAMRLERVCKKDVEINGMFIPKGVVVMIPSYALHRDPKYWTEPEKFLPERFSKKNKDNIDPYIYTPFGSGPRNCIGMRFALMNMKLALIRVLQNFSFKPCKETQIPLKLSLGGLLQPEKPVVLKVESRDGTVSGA
Cytochrome P450 2D6, sequence (P10635 whole entry): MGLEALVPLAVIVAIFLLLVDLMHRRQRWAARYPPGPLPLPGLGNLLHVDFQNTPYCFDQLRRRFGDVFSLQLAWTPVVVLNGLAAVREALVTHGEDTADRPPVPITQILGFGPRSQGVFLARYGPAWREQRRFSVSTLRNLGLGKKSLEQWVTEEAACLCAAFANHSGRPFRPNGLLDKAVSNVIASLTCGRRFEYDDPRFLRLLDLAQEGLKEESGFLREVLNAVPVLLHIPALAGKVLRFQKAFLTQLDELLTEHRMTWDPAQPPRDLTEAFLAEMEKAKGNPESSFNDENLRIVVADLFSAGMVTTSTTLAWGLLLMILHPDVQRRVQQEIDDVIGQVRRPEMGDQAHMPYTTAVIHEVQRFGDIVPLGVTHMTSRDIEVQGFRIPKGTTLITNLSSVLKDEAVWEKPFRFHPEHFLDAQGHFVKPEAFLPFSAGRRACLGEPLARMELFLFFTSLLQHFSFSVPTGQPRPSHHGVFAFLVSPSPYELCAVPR
Cytochrome P450 2C9, sequence (P11712 whole entry): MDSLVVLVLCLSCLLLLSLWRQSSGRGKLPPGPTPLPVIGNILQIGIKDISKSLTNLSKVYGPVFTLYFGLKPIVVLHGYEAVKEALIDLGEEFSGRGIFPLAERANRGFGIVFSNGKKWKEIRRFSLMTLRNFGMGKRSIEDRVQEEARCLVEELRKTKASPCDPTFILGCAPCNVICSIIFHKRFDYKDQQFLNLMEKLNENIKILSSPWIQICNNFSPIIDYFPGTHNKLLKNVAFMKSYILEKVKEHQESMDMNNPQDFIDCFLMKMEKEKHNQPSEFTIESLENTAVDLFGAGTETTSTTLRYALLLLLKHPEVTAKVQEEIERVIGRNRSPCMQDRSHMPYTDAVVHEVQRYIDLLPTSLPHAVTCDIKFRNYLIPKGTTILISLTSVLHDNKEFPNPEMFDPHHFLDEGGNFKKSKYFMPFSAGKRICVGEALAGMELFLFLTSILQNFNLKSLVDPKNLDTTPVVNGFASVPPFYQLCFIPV

O=C(CCCCCCC(=O)Nc1ccccc1)NOC(c1ccccc1)(c1ccccc1)c1ccccc1
solubility [1]: < 100 µg/mL | pIC50 [2]: 6.00 | pIC50 [3]: 6.15 | pIC50 [4]: 5.54 | CC50 at 72 h [5]: > 100000 nM | pIC50 [6]: 5.49 | Activity [7]: 54% | Activity [8]: Non-Toxic | Activity [9]: Non-Toxic | Activity [10]: Non-Toxic | Activity [11]: Non-Toxic | Activity [12]: Non-Toxic | Activity [13]: Non-Toxic | Activity [14]: Non-Toxic | Activity [15]: Non-Toxic | Activity [16]: Non-Toxic | Activity [17]: Non-Toxic | Activity [18]: Non-Toxic | Activity [19]: Non-Toxic | Activity [20]: inactive | Activity [21]: inactive | Activity [22]: 70% | Activity [23]: 60% | Activity [24]: 84% | Activity [25]: 92% | Drug metabolism [26]: Metabolite_Notdetected | Drug metabolism [27]: Metabolite_Detected | Drug metabolism [28]: Metabolite_Detected | half-life at 1 µM [29]: 8.7 min | pIC50 [30]: 5.25 | pIC50 [31]: < 4.06 | pIC50 [32]: 5.60 | Activity [33]: Non-Toxic | Activity [34]: Non-Toxic | Activity [35]: Non-Toxic | Activity [36]: Non-Toxic
